The record followed here is patent US11078228B2, “Ectonucleotidase inhibitors and methods of use thereof” (Calithera Biosciences, Inc., priority 2018, dated 2021).

Usually IC50 stands for the point on the concentration scale where inhibition reaches its midpoint.

SMILES strings stand for the structures.

The target in the experiment is recombinant CD73 (Homo sapiens (Human), UniProt P21589). As to the kind of experiment: Assay 2: Inhibition of the CD73 enzyme in vitro (0.05 nM CD73, 1 hour 37° C., Malachite Green). To be noted: 0.05 nM CD73, 50 μM AMP, 1 hour at 37° C. The format is biochemical. The method, then: For measurements of soluble CD73 enzyme activity, recombinant CD73 was obtained from R&D Systems, Cat. No. 5795-EN-010. […] Reactions were allowed to proceed for 1 hour at 37° C. before the addition of 100 μL Malachite Green (Cell Signaling Technology, Cat. No. 12776). After 5 minutes at room temperature, absorbance at 630 nm was determined on a microplate spectrophotometer. The concentration of inorganic phosphate was determined using a phosphate standard curve.
Sequence of recombinant CD73 (P21589 27-547): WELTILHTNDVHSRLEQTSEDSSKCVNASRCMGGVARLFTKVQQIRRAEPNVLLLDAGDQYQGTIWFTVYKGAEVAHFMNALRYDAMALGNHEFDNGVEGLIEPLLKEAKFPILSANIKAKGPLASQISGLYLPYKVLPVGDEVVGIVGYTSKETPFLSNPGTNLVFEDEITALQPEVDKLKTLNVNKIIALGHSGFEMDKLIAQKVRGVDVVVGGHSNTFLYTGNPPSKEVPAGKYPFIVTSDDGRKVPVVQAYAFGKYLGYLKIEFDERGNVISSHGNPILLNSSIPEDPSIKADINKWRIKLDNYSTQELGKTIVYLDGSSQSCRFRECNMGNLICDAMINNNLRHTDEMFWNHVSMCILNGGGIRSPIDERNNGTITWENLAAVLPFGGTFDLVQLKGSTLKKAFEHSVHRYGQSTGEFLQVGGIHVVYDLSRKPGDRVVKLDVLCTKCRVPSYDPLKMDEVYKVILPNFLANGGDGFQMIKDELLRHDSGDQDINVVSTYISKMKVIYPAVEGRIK
As for `C#C[C@@]1(O)[C@@H](COC(Cc2ccc(N3CCN(C)CC3=O)cc2)(C(=O)O)C(=O)O)O[C@@H](n2cnc3c(N)nc(Cl)nc32)[C@@H]1O` [Example 154, 2-(((2R,3S,4R,5R)-5-(6-amino-2-chloro-9H-purin-9-yl)-3-ethynyl-3,4-dihydroxytetrahydrofuran-2-yl)methoxy)-2-(4-(4-methyl-2-oxopiperazin-1-yl)benzyl)malonic acid], the IC50 was 2 nM.
For `C#C[C@@]1(O)[C@@H](COC(Cc2ccc(-c3cccn(COC)c3=O)cc2)(C(=O)O)C(=O)O)O[C@@H](n2cnc3c(N)nc(Cl)nc32)[C@@H]1O` [Compound 11, 2-(((2R,3S,4R,5R)-5-(6-amino-2-chloro-9H-purin-9-yl)-3-ethynyl-3,4-dihydroxytetrahydrofuran-2-yl)methoxy)-2-(4-(1-(methoxymethyl)-2-oxo-1,2-dihydropyridin-3-yl)benzyl)malonic acid] the value was 0.06 nM; for `C#C[C@@]1(O)[C@@H](COC(Cc2ccc(N3CCCNC3=O)cc2)(C(=O)O)C(=O)O)O[C@@H](n2cc(C)c(=O)[nH]c2=O)[C@@H]1O` [Example 133, 2-(((2R,3S,4R,5R)-3-ethynyl-3,4-dihydroxy-5-(5-methyl-2,4-dioxo-3,4-dihydropyrimidin-1 (2H)-yl)tetrahydrofuran-2-yl)methoxy)-2-(4-(2-oxotetrahydropyrimidin-1 (2H)-yl)benzyl)malonic acid], 7 nM; for `C#C[C@@]1(O)[C@@H](COC(Cc2ccccc2)(C(=O)O)C(=O)O)O[C@@H](n2cnc3c(N)nc(C(C)=O)nc32)[C@@H]1O` [Example 127, 2-(((2R,3S,4R,5R)-5-(2-acetyl-6-amino-9H-purin-9-yl)-3-ethynyl-3,4-dihydroxytetrahydrofuran-2-yl)methoxy)-2-benzylmalonic acid], 170 nM.
To `C#C[C@@]1(O)[C@@H](COC(Cc2ccccc2)(C(=O)O)C(=O)O)O[C@@H](n2cnc3c(NC)nc(Cl)nc32)[C@@H]1O` [Example 71, 2-benzyl-2-(((2R,3S,4R,5R)-5-(2-chloro-6-(methylamino)-9H-purin-9-yl)-3-ethynyl-3,4-dihydroxytetrahydrofuran-2-yl)methoxy)malonic acid] belongs 6 nM.
For `C#C[C@@]1(O)[C@@H](COC(Cc2ccncc2)(C(=O)O)C(=O)O)O[C@@H](n2cnc3c(N)nc(Cl)nc32)[C@@H]1O` [Compound 7, 2-(((2R,3S,4R,5R)-5-(6-amino-2-chloro-9H-purin-9-yl)-3-ethynyl-3,4-dihydroxytetrahydrofuran-2-yl)methoxy)-2-(pyridin-4-ylmethyl)malonic acid] the value was 8 nM; for `C#C[C@@]1(O)[C@@H](COC(Cc2ccc(-c3cccnc3N)cc2)(C(=O)O)C(=O)O)O[C@@H](n2cnc3c(N)nc(Cl)nc32)[C@@H]1O` [Example 197, 2-(((2R,3S,4R, 5R)-5-(6-amino-2-chloro-9H-purin-9-yl)-3-ethynyl-3,4-dihydroxytetrahydrofuran-2-yl)methoxy)-2-(4-(2-aminopyridin-3-yl)benzyl)malonic acid], 0.73 nM.
Take `C#C[C@@]1(O)[C@@H](COC(C)(C(=O)O)C(=O)O)O[C@@H](n2cnc3c(N)nc(Cl)nc32)[C@@H]1O` [Example 17, 2-(((2R,3S,4R,5R)-5-(6-amino-2-chloro-9H-purin-9-yl)-3-ethynyl-3,4-dihydroxytetrahydrofuran-2-yl)methoxy)-2-methylmalonic acid]: the IC50 came out at 347 nM.
For `C#C[C@@]1(O)[C@@H](COC(Cc2ccccc2)(C(=O)O)C(=O)O)O[C@@H](n2cnc3c(N(C)CC4CC4)nc(Cl)nc32)[C@@H]1O` [Example 75, 2-benzyl-2-(((2R,3S,4R,5R)-5-(2-chloro-6-((cyclopropylmethyl)-(methyl)amino)-9H-purin-9-yl)-3-ethynyl-3,4-dihydroxytetrahydrofuran-2-yl)methoxy)malonic acid], the IC50 stood at 0.6 nM.
For `C#C[C@@]1(O)[C@@H](COC(Cc2ccccc2)(C(=O)O)C(=O)O)O[C@@H](n2cnc3c(NCCOC)nc(Cl)nc32)[C@@H]1O` [Example 38, 2-benzyl-2-(((2R,3S,4R,5R)-5-(2-chloro-6-((2-methoxyethyl)amino)-9H-purin-9-yl)-3-ethynyl-3,4-dihydroxytetrahydrofuran-2-yl)methoxy)malonic acid] the value was 3 nM; for `C#C[C@@]1(O)[C@@H](COC(Cc2ccccc2)(C(=O)O)C(=O)O)O[C@@H](n2cnc3c(NCc4cccc(Cl)c4)nc(Cl)nc32)[C@@H]1O` [Example 86, 2-benzyl-2-(((2R,3S,4R,5R)-5-(2-chloro-6-((3-chlorobenzyl)amino)-9H-purin-9-yl)-3-ethynyl-3,4-dihydroxytetrahydrofuran-2-yl)methoxy)malonic acid], 1 nM.
Turning to `C#C[C@@]1(O)[C@@H](COC(Cc2ccccc2)(C(=O)O)C(=O)O)O[C@@H](n2cnc3c(N)nc(C(N)=O)nc32)[C@@H]1O` [Example 122, 2-(((2R,3S,4R,5R)-5-(6-amino-2-carbamoyl-9H-purin-9-yl)-3-ethynyl-3,4-dihydroxytetrahydrofuran-2-yl)methoxy)-2-benzylmalonic acid], the IC50 worked out at 40 nM.
For `C#C[C@@]1(O)[C@@H](COC(Cc2ccc(-c3cccn(CC)c3=O)cc2)(C(=O)O)C(=O)O)O[C@@H](n2cnc3c(N)nc(Cl)nc32)[C@@H]1O` [Example 20, 2-(((2R,3S,4R,5R)-5-(6-amino-2-chloro-9H-purin-9-yl)-3-ethynyl-3,4-dihydroxytetrahydrofuran-2-yl)methoxy)-2-(4-(1-ethyl-2-oxo-1,2-dihydropyridin-3-yl)benzyl)malonic acid] the value was 0.2 nM; for `C#C[C@@]1(O)[C@@H](COC(Cc2ccccc2)(C(=O)O)C(=O)O)O[C@@H](n2cnc3c(N4CCOCC4)nc(Cl)nc32)[C@@H]1O` [Example 79, 2-benzyl-2-(((2R,3S,4R,5R)-5-(2-chloro-6-morpholino-9H-purin-9-yl)-3-ethynyl-3,4-dihydroxytetrahydrofuran-2-yl)methoxy)malonic acid], 4 nM; for `C#C[C@@]1(O)[C@@H](COC(Cc2ccccc2)(C(=O)O)C(=O)O)O[C@@H](n2cnc3c(N(C)CC)nc(Cl)nc32)[C@@H]1O` [Example 66, 2-benzyl-2-(((2R,3S,4R,5R)-5-(2-chloro-6-(ethyl(methyl)amino)-9H-purin-9-yl)-3-ethynyl-3,4-dihydroxytetrahydrofuran-2-yl)methoxy)malonic acid], 0.3 nM.
Take `C#C[C@@]1(O)[C@@H](COC(Cc2ccc(-c3cccn(CC)c3=O)cc2)(C(=O)O)C(=O)O)O[C@@H](n2cnc3c(NC)nc(Cl)nc32)[C@@H]1O` [Example 130, 2-(((2R,3S,4R,5R)-5-(2-chloro-6-(methylamino)-9H-purin-9-yl)-3-ethynyl-3,4-dihydroxytetrahydrofuran-2-yl)methoxy)-2-(4-(1-ethyl-2-oxo-1,2-dihydropyridin-3-yl)benzyl)malonic acid]: the IC50 amounted to 0.36 nM.
For `C#C[C@@]1(O)[C@@H](COC(Cc2ccccc2)(C(=O)O)C(=O)O)O[C@@H](n2cnc3c(N4CCC[C@@H]4CO)nc(Cl)nc32)[C@@H]1O` [Example 103, 2-benzyl-2-(((2R,3S,4R,5R)-5-(2-chloro-6-((R)-2-(hydroxymethyl)-pyrrolidin-1-yl)-9H-purin-9-yl)-3-ethynyl-3,4-dihydroxytetrahydrofuran-2-yl)methoxy)malonic acid] the value was 3 nM; for `C#C[C@@]1(O)[C@@H](COC(Cc2ccc(-c3ccccc3)cc2)(C(=O)O)C(=O)O)O[C@@H](n2cnc3c(N)nc(Cl)nc32)[C@@H]1O` [Example 53, 2-([1,1′-biphenyl]-4-ylmethyl)-2-(((2R,3S,4R,5R)-5-(6-amino-2-chloro-9H-purin-9-yl)-3-ethynyl-3,4-dihydroxytetrahydrofuran-2-yl)methoxy)malonic acid], 0.3 nM; for `C#C[C@@]1(O)[C@@H](COC(Cc2ccccc2)(C(=O)O)C(=O)O)O[C@@H](n2cnc3c(NCC)nc(Cl)nc32)[C@@H]1O` [Example 73, 2-benzyl-2-(((2R,3S,4R,5R)-5-(2-chloro-6-(ethylamino)-9H-purin-9-yl)-3-ethynyl-3,4-dihydroxytetrahydrofuran-2-yl)methoxy)malonic acid], 1 nM.
For `C#C[C@@]1(O)[C@@H](COC(Cc2ccoc2)(C(=O)O)C(=O)O)O[C@@H](n2cnc3c(N)nc(Cl)nc32)[C@@H]1O` [Compound 8, 2-(((2R,3S,4R,5R)-5-(6-amino-2-chloro-9H-purin-9-yl)-3-ethynyl-3,4-dihydroxytetrahydrofuran-2-yl)methoxy)-2-(furan-3-ylmethyl)malonic acid], the IC50 turned out to be 2 nM.
To `C#C[C@@]1(O)[C@@H](COC(Cc2ccccc2)(C(=O)O)C(=O)O)O[C@@H](n2cnc3c(N[C@@H](C)CO)nc(Cl)nc32)[C@@H]1O` [Example 95, 2-benzyl-2-(((2R,3S,4R,5R)-5-(2-chloro-6-(((S)-1-hydroxypropan-2-yl)amino)-9H-purin-9-yl)-3-ethynyl-3,4-dihydroxytetrahydrofuran-2-yl)methoxy)malonic acid] belongs 7 nM; to `C#C[C@@]1(O)[C@@H](COC(Cc2ccccc2)(C(=O)O)C(=O)NC)O[C@@H](n2cnc3c(NCc4ccccc4)nc(Cl)nc32)[C@@H]1O` (stereo partly drawn) [Example 107, 2-benzyl-2-(((2R,3S,4R,5R)-5-(6-(benzylamino)-2-chloro-9H-purin-9-yl)-3-ethynyl-3,4-dihydroxytetrahydrofuran-2-yl)methoxy)-3-(methylamino)-3-oxopropanoic acid], 506 nM; to `C#C[C@@]1(O)[C@@H](COC(Cc2ccccc2)(C(=O)O)C(=O)O)O[C@@H](n2cnc3c(N4CCCCCC4)nc(Cl)nc32)[C@@H]1O` [Example 80, 2-(((2R,3S,4R,5R)-5-(6-(azepan-1-yl)-2-chloro-9H-purin-9-yl)-3-ethynyl-3,4-dihydroxytetrahydrofuran-2-yl)methoxy)-2-benzylmalonic acid], 2 nM.
